These results are taken from patent US10091997B2, “Composition for inhibition of insect host sensing” (Vanderbilt University, priority 2010, dated 2018).

The structures appear in SMILES notation. Entries after “also recorded” stand apart in the source; their conditions may differ.

Test [1] has as its target T1, AgORco (Anopheles gambiae, UniProt Q7QCC7).
T1 construct: expressed in transfected cells
T1 sequence (Q7QCC7 1-478): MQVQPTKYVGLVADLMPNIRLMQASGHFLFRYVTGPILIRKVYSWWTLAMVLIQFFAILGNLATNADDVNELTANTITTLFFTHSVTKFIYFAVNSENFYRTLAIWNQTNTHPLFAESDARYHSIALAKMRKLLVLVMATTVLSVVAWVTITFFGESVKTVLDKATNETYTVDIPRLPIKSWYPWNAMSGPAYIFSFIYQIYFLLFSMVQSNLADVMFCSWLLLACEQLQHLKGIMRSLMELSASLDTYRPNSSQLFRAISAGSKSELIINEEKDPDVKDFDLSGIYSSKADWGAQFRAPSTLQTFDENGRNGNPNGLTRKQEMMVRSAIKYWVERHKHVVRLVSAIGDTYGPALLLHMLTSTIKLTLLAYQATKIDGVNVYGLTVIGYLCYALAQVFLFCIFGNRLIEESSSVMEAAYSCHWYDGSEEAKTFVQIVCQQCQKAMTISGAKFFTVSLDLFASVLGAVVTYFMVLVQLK
Kind of test: single-channel recording, outside-out patches from AgORco-expressing HEK293 cells. It counts as cell-based. As for the experimental part:
(§1) Currents from OR-expressing HEK293 cells were amplified with an Axopatch 200b Amplifier (Axon Instruments) and digitized through a Digidata 1322A (Axon Instruments). Electrophysiological data was recorded and analyzed using pCLAMP 10 (Axon Instruments). Electrodes were fabricated from quartz tubing (Sutter Instruments) and pulled to 4-6 MΩ for whole cell recording. Electrodes were filled with internal solution (120 mM KCl, 30 mM D-glucose, 10 mM HEPES, 2 mM MgCl2, 1.1 mM EGTA, and 0.1 CaCl2 (pH 7.35, 280 mOsm). External (bath) solution contained 130 mM NaCl, 34 mM D-glucose, 10 mM HEPES, 1.5 mM CaCl2, 1.3 mM KH2PO4, and 0.5 MgSO4 (pH 7.35, 300 mOsm). Compounds were diluted in external solution and locally perfused to the recording cell using Perfusion Pencil (Automate Scientific) and controlled by a ValveLink 8.2 controller (Automate Scientific). Whole cell recordings were sampled at 10 kHz and filtered at 5 kHz. Outside-out patches were obtained using 10-15MΩ electrodes pulled from standard glass capillaries (World Precision Instruments) and fire-polished with an MF-830 micro forge (Narishige). Single channel recordings were sampled at 20 kHz. Recordings were reduced to 1 kHz and low-pass filtered at 500 Hz for display and analysis using QuB (SUNY at Buffalo).
In the next set of studies, outside-out membrane patches were excised from AgORco-expressing cells to examine single-channel currents evoked by VUAA1 (FIG. 5A). Here, spontaneous channel opening was observed before VUAA1 stimulation, but with very low probability (Po=0.02) (FIG. 5B). During a 5 s application of VUAA1 channel opening probability increased to Po=0.38 (FIG. 5C). Subsequent to agonist washout, channel opening probability decreased to 0.00 (FIG. 5D). The average unitary current of AgORco was 1.3±0.3 pA (mean±st. dev.) (FIG. 5C, inset) which is consistent with earlier single-channel studies of insect ORs (Sato et al., 2008).

The test system of test [2] is Un-transfected HEK293 cells. The test is described as follows: whole-cell patch clamp, control HEK293 cells (un-transfected or GFP alone). The class given is cell-based, human. As for the experimental part:
as §1

Test [3] deals with T1, AgORco. The test is described as follows: whole-cell patch clamp, HEK293 cells stably expressing AgORco alone. The class given is cell-based. As for the experimental part:
as §1
To test the hypothesis that VUAA1 directly agonized AgORco, whole-cell patch clamp responses were examined in AgORco+AgOR10 expressing cells as well HEK293 cells stably expressing AgORco alone. […] The VUAA1-dependent currents in AgORco+AgOR10 cells resembled those resulting from application of benzaldehyde, an orthosteric agonist of AgOR10 (FIG. 3C) (Wang, 2010; Carey, 2010). AgORco+AgOR10 cells were more sensitive to VUAA1 than AgORco cells, producing inward currents at −5.0 log M, a concentration at which AgORco had no response. […] To investigate the specificity of VUAA1 agonism, the inventors transiently transfected HEK cells with the AgORco orthologs of Drosophila melanogaster and Heliothis virescens, DmOR83b and HvOR2 respectively.
Background: Patch clamp records ionic current or voltage across a cell membrane.

A further test has as its system AgORco+AgOR10. Kind of test: plate-based Fluo-4 Ca2+ imaging in stable HEK293 cell lines. As to conditions: AgORco+AgOR10 HEK293 cells; not seen in control cells. Set-up: species or system Anopheles gambiae. From the text: For transient transfections, ORs were cloned into pCI (Promega) and transfected into Flp-In™ T-REx™293 cell lines (Invitrogen) with Fu GENE6 (Roche). For the creation of stable cell lines, a cell culture expression vector capable of expressing AgORco in conjunction with a conventional OR, pcDNA5/FRT/TO (Invitrogen) was modified to create two individual expression cassettes each under the control of a separate CMV/TetO2 promoter and a BGH poly-adenylation signal. Cells (as above) were transfected with the modified pcDNA5 plasmid along with POG44 (a Flp recombinase expression plasmid) to facilitate site-specific recombination. Stable cell lines were selected using Hygromycin B (Invitrogen). Cells were maintained in DMEM (Invitrogen) supplemented with 10% Tetracycline-free FBS (HyClone) and 15 μg/ml Blasticidin. For fluorometric Ca^2+ measurements, stable lines expressing ORs of interest were seeded at 20,000 cells/well in black wall, poly-lysine coated 384-well cell culture plates (Greiner) and treated with […] tetracycline (Sigma) overnight to induce OR expression. Cells were dye-loaded with 1.8 μM Fluo-4 AM (Molecular Probes), 2.5 mM Probenecid (Molecular Probes) in assay buffer (20 mM HEPES, 1×HBSS) for 45 minutes at 37° C. in 5% CO2 prior to each assay. […] Baseline readings were taken for 20 s before automated addition of compound previously diluted in DMSO and assay buffer. […]

Turning to `CCc1ccc(NC(=O)CSc2nnc(-c3cccnc3)n2CC)cc1` [VUAA1], on AgORco [1] (5 s application of −4.0 log M, outside-out patch held at −60 mV, Po=0.02 before stimulation), the “channel opening probability (Po) during application” value is listed as 0.38. Moreover, the “average unitary current of AgORco” value on AgORco [1] (during VUAA1 application, mean±st. dev.) worked out at 1.3±0.3 pA. Besides, the “channel opening probability after agonist washout” value at AgORco [1] (outside-out patch, after washout) is 0.00. Moreover, in test [2] (HEK cells transfected with GFP alone), the “whole-cell currents in GFP alone cells” value is on record as “no currents”. Moreover, in test [2] (control / un-transfected HEK293 cells), the “whole-cell currents in control cells” value was “no responses were observed; also recorded: did not respond”. Further, on AgORco [3] (AgORco alone cells, clamped at −60 mV), the whole-cell currents entry is reported as “concentration-dependent inward currents”. At AgORco [3] (AgORco alone cells, −5.0 log M), the “whole-cell response at −5.0 log M” value was “no response”. Further, the reversal potential result on AgORco [3] (AgORco alone, mean±s.e.m.) is given as “+0.4±1.1 mV”. For the same molecule, the “Ca2+ imaging response” value with AgORco+AgOR10 is “concentration-dependent responses”.
